Columns and labels:
human IFN-7 = experiment: IFN-γ release in supernatants of co-culture of tumor cells and tumor reactive CD8+ T cells (Mesoscale ELISA); format: cell-based; conditions: MART-1 reactive T cell-PC9 co-culture
Experimental: Antigen specific CD8+ T-cells secrete IFN-γ upon tumor antigen recognition. To evaluate the amount of IFN-7 detected within the supernatants of co-cultures containing PC9-MART1-GFP tumor cells and tumor reactive CD8+ T cells, separate parallel co-cultures were established in Nunc 96 well plates (Sigma Aldrich) alongside the Incucyte optical plates. For evaluation of IFN-7 release, supernatants were harvested from co-cultures in the Nunc 96 well plates 24, 72 and 144 hours later. IFN-7 was measured using Mesoscale Discovery multi-spot ELISA for human IFN-7 as per the manufacturer's instructions. […] For the MART-1 tumor antigen reactive T cell-PC9 lung adenocarcinoma co-culture, IFN-7 secretion by T cells was retained in the presence of the hRS7(TROP2)-TOP1i ADC alone, AZD2936 and MEDI5752 both alone and in combination with the ADC, FIG. 4C-4D. AZD7789 enhanced IFN-7, which was retained in combination with the hRS7(TROP2)-TOP1i ADC FIG. 4E.

PC9-MART1-GFP cells = experiment: T cell mediated cytolysis in co-culture of MART-1 reactive CD8+ T cells and tumor cells (Incucyte, loss of GFP); format: cell-based; conditions: single agent; bispecific 2 nM, ADC 0.05 μg/ml; E:T 4:1 or 5:1; five days after T cell addition
Experimental: A co-culture assay system was developed which utilized melanoma antigen Melan A (MART-1) reactive T cells and PC9 lung adenocarcinoma cells engineered to express both the MART-1 antigen and Green Fluorescent Protein (GFP). Tumor cell lysis was evaluated utilizing the Sartorius Incucyte Live Cell Analysis System whereby loss of GFP signal intensity was used as a surrogate marker for cell death. Briefly, PC9-MART1-GFP cells were harvested from cell culture flasks using trypsin, washed once with complete RPMI media as defined in Example 1, resuspended and added to each well of 96 well clear bottom, opaque walled optical plates for 24 hours at 37° C. in 5% CO2 as per the manufacturer's instructions. The PD-1-TIGIT (AZD2936), PD-1-TIM3 (AZD7789) or PD-1-CTLA4 (MEDI5752) bispecific antibodies were used at 2 nM concentration. The hRS7(TROP2)-TOP1i ADC was used at 0.05 μg/ml. Treatments were added alone or in combination to wells immediately before rested, antigen-specific CD8+ T cells were added at effector to target (E:T) ratios of 4:1 or 5:1 effector T cells to target tumor cells depending on the donor. Tumor cell death and percent cytolysis were measured five days after T cell addition by image analysis of GFP intensity per well. Data are from experiments with 3 unique donors. Statistical significance for the indicated comparisons is denoted as * p<0.05, ** p<0.01, p<0.001.

[1] = agent alone, supernatants at 24, 72 and 144 hours
[2] = in combination with the hRS7(TROP2)-TOP1i ADC

AZD2936: PD-1-TIGIT bispecific antibody was tested, and the “IFN-7 secretion by T cells” value (human IFN-7; [1]) was “retained”, the “IFN-7 secretion by T cells” value (human IFN-7; [2]) was “retained” and the “T cell mediated cytolysis of PC9 tumor cells” value (shortened to “T cell mediated cytolysis”) (PC9-MART1-GFP cells) was “enhanced”.
“AZD7789: anti-TIM-3/PD-1 bispecific binding protein comprising sequences of monoclonal antibody 013-1 (TIM-3) and LO115 (PD-1)” was tested, and the “IFN-7 secretion by T cells” value (human IFN-7; [1]) was “enhanced”, the “IFN-7 secretion by T cells” value (human IFN-7; [2]) was “retained” and the “T cell mediated cytolysis” value (PC9-MART1-GFP cells) was “enhanced”.
For “MEDI5752: anti-PD-1/CTLA-4 bispecific antibody”, the “IFN-7 secretion by T cells” value (human IFN-7; [1]) was “retained”, the “IFN-7 secretion by T cells” value (human IFN-7; [2]) was “retained” and the “T cell mediated cytolysis” value (PC9-MART1-GFP cells) was “enhanced”.

Source: patent US20240075160A1, “COMBINATION THERAPIES FOR TREATMENT OF CANCER” (MedImmune, LLC, priority 2022, published 2024)
